# Patent US20030161893A1, “PTPase inhibitors and methods of using the same” (priority 2001, published 2003)
# System: Stat1
# Experiment: IFN-alpha-induced Stat1 tyrosine phosphorylation, WM9 cells
# Assay type: cell-based, human
# Details: WM9, 5 hours post-stimulation
# Procedure: For induction of Stat1 tyrosine phosphorylation by IFN-alpha in the absence or presence of sodium stibogluconate, cells grown in 10% FCS RPMI 1640 medium at 37° C. were stimulated with IFN-alpha (50 u/ml) for various time points and treated with or without sodium stibogluconate for 5 minutes prior to termination by lysing the cells in cold lysis buffer (1% NP-40; 50 mM Tris, pH 7.4; 100 mM NaCl; 1 mM EDTA, 10% glycerol, 10 mM sodium molybdic acid and 4 mM AEBSF).
# Cell lysates were prepared by lysing cells in cold lysis buffer for 30 min and cleared by centrifuging at 14,000 rpm at 4° C. for 15 min. For SDS-PAGE, cell lysates were mixed with equal volume of 2×SDS-PAGE sample buffer, heated at 90° C. for 5 min and separated in 10% SDS-PAGE gels. Cellular proteins in SDS-PAGE gels were transferred to nitrocellulose membrane (Schleicher & Schuell, Keene, N.H.), blocked in 5% milk, probed with antibodies and detected by using an enhanced chemiluminescence kit (ECL, Amersham, Arlington Heights, Ill.).
compound,measurement,value
O.O.O.O.O.O.O.O.O.O=C([O-])[C@@H]1[O][Sb]2([O-])([O][Sb]34([OH])[O][C@H]([C@H](O)CO)[C@H]([O]3)[C@H](C(=O)[O-])[O]4)[O][C@H]([C@H](O)CO)[C@@H]1[O]2.[Na+].[Na+].[Na+] [sodium stibogluconate],IFN-alpha-induced Stat1 tyrosine phosphorylation,Enhanced
